From US8399683B2 (TetraLogic Pharmaceuticals, priority 2008, dated 2013)

Legend:
XIAP BIR-3 = molecular target: T1, XIAP BIR-3 (Homo sapiens, UniProt P98170); test: Fluorescence polarization binding affinity to XIAP BIR-3 (competition with AbuRPF-K(5-Fam)-NH2); settings: 5 nM labeled peptide, 40 nM BIR3, 15 min at RT, pH 7.5; reported as ranges
T1 construct: 40 nM of the respective IAP BIR3
Protocol: (§1) The binding affinities of the compounds are reported as a KD value (μM). Briefly, various concentrations of test peptides were mixed with 5 nM of the fluorescently labeled peptide (i.e., a mutated N-terminal Smac peptide—AbuRPF-K(5-Fam)-NH2) and 40 nM of the respective IAP BIR3 for 15 min at RT in […] of 0.1M Potassium Phosphate buffer, pH 7.5 containing […] bovine g-globulin. Following incubation, the polarization values (mP) were measured on a Victor2V (available from PerkinElmer Life Sciences) using a 485 nm excitation filter and a 520 nm emission filter. The reported KD values are supplied as ranges (A=<0.1 μM, B=0.1 μM to 1 μM, C>1 μM to 10 μM, D=>10 μM).

cIAP-1 BIR-3 = cIAP-1 BIR-3 (Homo sapiens, UniProt Q13490); test: Fluorescence polarization binding affinity to cIAP-1 BIR-3 (competition with AbuRPF-K(5-Fam)-NH2); settings: 5 nM labeled peptide, 40 nM BIR3, 15 min at RT, pH 7.5; reported as ranges; read-out: KD (c-IAP-1 BIR3)
Protocol: as §1

SK-OV-3 cells = test: Growth inhibition of ovarian cancer cell line SK-OV-3 (MTT assay, cell survival); type: cell-based; settings: Homo sapiens, drug concentration that results in 50% cell survival, 72 hrs incubation, reported as ranges
Protocol: Compounds of the invention also were tested for their ability to inhibit the growth of an ovarian cancer cell line, SK-OV-3. A known assay previously used for measuring cell growth (as described in Hansen, M. B., Nielsen, S. E., and Berg, K. (1989) J. Immunol. Methods 119, 203-210 and incorporated herein by reference in its entirety) was used. Briefly, SK-OV-3 cells are seeded in 96-well plates in McCoy's medium containing 10% fetal bovine serum albumin (5,000 per well) and incubated overnight at 37° C. The next day, test compounds are added at various concentrations (0.003-10 μM) and the plates are incubated at 37° C. for an additional 72 hrs. This incubation time was considered to be optimal for measuring inhibitory effects of the different compounds tested. 50 microliters of 5 mg/mL MTT reagent is added to each well and the plates are incubated at 37° C. for another three (3) hours. At the end of the three (3) hour incubation period, 50 microliters of DMSO is added to each well to dissolve cells and the optical density (OD) of the wells is measured with a microplate reader (Victor^2 1420, Wallac, Finland) at 535 nm. Cell survival (CS) was calculated using the following equation: CS=(OD treated well/mean OD control wells)×100%.
The CC50 (reported in the following tables), is defined as the drug concentration that results in 50% cell survival (CS), and is derived by calculating the point where the dose-response curve crosses the 50% CS point using GraphPad Prism. The reported CC50 values are supplied as ranges (A=<0.1 μM, B=0.1 μM to 1 μM, C=>1 μM to 10 μM, D=>10 μM).

T1 sequence (P98170 241-356 limits assumed): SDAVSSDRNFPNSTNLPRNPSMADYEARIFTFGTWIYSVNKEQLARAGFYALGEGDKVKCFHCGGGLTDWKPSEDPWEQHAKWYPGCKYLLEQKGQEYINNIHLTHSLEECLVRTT
Sequence of cIAP-1 BIR-3 (Q13490 266-352 limits assumed): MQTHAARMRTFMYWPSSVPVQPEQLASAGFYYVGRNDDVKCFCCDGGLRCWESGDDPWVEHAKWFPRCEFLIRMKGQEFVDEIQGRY

| Kd (XIAP BIR-3) [µM] | Kd (cIAP-1 BIR-3) [µM] | SMILES | CC50 (SK-OV-3 cells) [µM] |
| --- | --- | --- | --- |
| 1 to 10 | < 0.1 | CN[C@@H](C)C(=O)N[C@@H](COC)C(=O)N1CC[C@@H]2[C@H]1[C@H](c1c[nH]c3cc(F)ccc13)CN2C1CCCC1 [Example 12, N-{2-[4-Cyclopentyl-6-(6-fluoro-1H-indol-3-yl)-hexahydro-pyrrolo[3,2-b]pyrrol-1-yl]-1-methoxymethyl-2-oxo-ethyl}-2-methylamino-propionamide] | > 10 |
| 0.1 to 1 | < 0.1 | CN[C@@H](C)C(=O)N[C@H](C(=O)N1CC[C@@H]2[C@H]1[C@@H](c1c[nH]c3cc(F)ccc13)CN2C1CCCC1)[C@@H](C)OC [Example 16, N-{1-[4-Cyclopentyl-6-(6-fluoro-1H-indol-3-yl)-hexahydro-pyrrolo-[3,2-b]pyrrole-1-carbonyl]-2-methoxy-propyl}-2-methylamino-propionamide] | 0.1 to 1 |
| 0.1 to 1 | < 0.1 | CCN1C[C@H](c2c[nH]c3cc(F)ccc23)[C@@H]2[C@H]1CCN2C(=O)[C@@H](NC(=O)[C@H](C)NC)C1CCCCC1 [Example 18, N-{1-Cyclohexyl-2-[4-ethyl-6-(6-fluoro-1H-indol-3-yl)-hexahydro-pyrrolo[3,2-b]pyrrol-1-yl]-2-oxo-ethyl}-2-methylamino-propionamide] | 0.1 to 1 |
| 0.1 to 1 | < 0.1 | CN[C@@H](C)C(=O)N[C@H](C(=O)N1CC[C@@H]2[C@H]1[C@@H](c1c[nH]c3cc(F)ccc13)CN2C1CCNCC1)C1CCCCC1 [Example 21, N-{1-Cyclohexyl-2-[6-(6-fluoro-1H-indol-3-yl)-4-piperidin-4-yl-hexahydro-pyrrolo[3,2-b]pyrrol-1-yl]-2-oxo-ethyl}-2-methylamino-propionamide] | > 10 |
| < 0.1 | < 0.1 | CN[C@@H](C)C(=O)N[C@H](C(=O)N1CC[C@@H]2[C@H]1[C@@H](c1c[nH]c3cc(F)ccc13)CN2Cc1ccccn1)C1CCCCC1 [Example 24, N-{1-Cyclohexyl-2-[6-(6-fluoro-1H-indol-3-yl)-4-pyridin-2-ylmethyl-hexahydro-pyrrolo[3,2-b]pyrrol-1-yl]-2-oxo-ethyl}-2-methylamino-propionamide] | < 0.1 |
| < 0.1 | < 0.1 | CN[C@@H](C)C(=O)N[C@H](C(=O)N1CC[C@@H]2[C@H]1[C@@H](c1c[nH]c3cc(F)ccc13)CN2Cc1cccnc1)C1CCCCC1 [Example 25, N-{1-Cyclohexyl-2-[6-(6-fluoro-1H-indol-3-yl)-4-pyridin-3-ylmethyl-hexahydro-pyrrolo[3,2-b]pyrrol-1-yl]-2-oxo-ethyl}-2-methylamino-propionamide] | 0.1 to 1 |
| 0.1 to 1 | < 0.1 | CN[C@@H](C)C(=O)N[C@H](C(=O)N1CC[C@H]2NC[C@H](c3c[nH]c4cc(F)ccc34)[C@H]21)[C@@H](C)O [Example 28, N-{1-[6-(6-Fluoro-1H-indol-3-yl)-hexahydro-pyrrolo[3,2-b]pyrrole-1-carbonyl]-2-hydroxy-propyl}-2-methylamino-propionamide] | 1 to 10 |

Further lines, the compound ahead of its results:

| SMILES | Kd (XIAP BIR-3) [µM] | Kd (cIAP-1 BIR-3) [µM] | CC50 (SK-OV-3 cells) [µM] |
| --- | --- | --- | --- |
| CN[C@@H](C)C(=O)N[C@@H](COC)C(=O)N1CC[C@@H]2[C@H]1[C@@H](c1c[nH]c3cc(F)ccc13)CN2C1CCCC1 [Example 13] | 1 to 10 | 0.1 to 1 | 1 to 10 |
| CN[C@@H](C)C(=O)N[C@H](C(=O)N1CC[C@@H]2[C@H]1[C@H](c1c[nH]c3cc(F)ccc13)CN2C1CCCC1)[C@@H](C)O [Example 14, N-{1-[4-Cyclopentyl-6-(6-fluoro-1H-indol-3-yl)-hexahydro-pyrrolo[3,2-b]pyrrole-1-carbonyl]-2-hydroxy-propyl}-2-methylamino-propionamide] | > 10 | 0.1 to 1 | > 10 |
| CN[C@@H](C)C(=O)N[C@H](C(=O)N1CC[C@@H]2[C@H]1[C@@H](c1c[nH]c3cc(F)ccc13)CN2C1CCCC1)[C@@H](C)O [Example 15] | 0.1 to 1 | 0.1 to 1 | 0.1 to 1 |
| CN[C@@H](C)C(=O)N[C@H](C(=O)N1CC[C@@H]2[C@H]1[C@@H](c1c[nH]c3cc(F)ccc13)CN2C)C1CCCCC1 [Example 17, N-{1-Cyclohexyl-2-[6-(6-fluoro-1H-indol-3-yl)-4-methyl-hexahydro-pyrrolo[3,2-b]pyrrol-1-yl]-2-oxo-ethyl}-2-methylamino-propionamide] | 0.1 to 1 | < 0.1 | 0.1 to 1 |
| CN[C@@H](C)C(=O)N[C@H](C(=O)N1CC[C@@H]2[C@H]1[C@@H](c1c[nH]c3cc(F)ccc13)CN2C(C)C)C1CCCCC1 [Example 19, N-{1-Cyclohexyl-2-[6-(6-fluoro-1H-indol-3-yl)-4-isopropyl-hexahydro-pyrrolo[3,2-b]pyrrol-1-yl]-2-oxo-ethyl}-2-methylamino-propionamide] | 1 to 10 | < 0.1 | 0.1 to 1 |
| CN[C@@H](C)C(=O)N[C@H](C(=O)N1CC[C@@H]2[C@H]1[C@@H](c1c[nH]c3cc(F)ccc13)CN2C1CCCCC1)C1CCCCC1 [Example 20, N-{1-Cyclohexyl-2-[4-cyclohexyl-6-(6-fluoro-1H-indol-3-yl)-hexahydro-pyrrolo[3,2-b]pyrrol-1-yl]-2-oxo-ethyl}-2-methylamino-propionamide] | < 0.1 | < 0.1 | 0.1 to 1 |
| CN[C@@H](C)C(=O)N[C@H](C(=O)N1CC[C@@H]2[C@H]1[C@@H](c1c[nH]c3cc(F)ccc13)CN2C1CCN(C)CC1)C1CCCCC1 [Example 22, N-{1-Cyclohexyl-2-[6-(6-fluoro-1H-indol-3-yl)-4-(1-methyl-piperidin-4-yl)-hexahydro-pyrrolo[3,2-b]pyrrol-1-yl]-2-oxo-ethyl}-2-methylamino-propionamide] | 0.1 to 1 | < 0.1 | 0.1 to 1 |
| CN[C@@H](C)C(=O)N[C@H](C(=O)N1CC[C@@H]2[C@H]1[C@@H](c1c[nH]c3cc(F)ccc13)CN2Cc1ncc(C)s1)C1CCCCC1 [Example 23, N-{1-Cyclohexyl-2-[6-(6-fluoro-1H-indol-3-yl)-4-(5-methyl-thiazol-2-ylmethyl)-hexahydro-pyrrolo[3,2-b]pyrrol-1-yl]-2-oxo-ethyl}-2-methylamino-propionamide] | < 0.1 | < 0.1 | < 0.1 |
| CN[C@@H](C)C(=O)N[C@H](C(=O)N1CC[C@@H]2[C@H]1[C@@H](c1c[nH]c3cc(F)ccc13)CN2Cc1ccncc1)C1CCCCC1 [Example 26, N-{1-Cyclohexyl-2-[6-(6-fluoro-1H-indol-3-yl)-4-pyridin-4-ylmethyl-hexahydro-pyrrolo[3,2-b]pyrrol-1-yl]-2-oxo-ethyl}-2-methylamino-propionamide] | < 0.1 | < 0.1 | < 0.1 |
| CN[C@@H](C)C(=O)N[C@H](C(=O)N1CC[C@@H]2[C@H]1[C@@H](c1c[nH]c3cc(F)ccc13)CN2Cc1nccn1C)C1CCCCC1 [Example 27, N-{1-Cyclohexyl-2-[6-(6-fluoro-1H-indol-3-yl)-4-(1-methyl-1H-imidazol-2-ylmethyl)-hexahydro-pyrrolo[3,2-b]pyrrol-1-yl]-2-oxo-ethyl}-2-methylamino-propionamide] | < 0.1 | < 0.1 | 1 to 10 |
| CC[C@H](NC(=O)[C@H](C)NC)C(=O)N1CC[C@H]2NC[C@H](c3c[nH]c4cc(F)ccc34)[C@H]21 [Example 29, N-{1-[6-(6-Fluoro-1H-indol-3-yl)-hexahydro-pyrrolo[3,2-b]pyrrole-1-carbonyl]-propyl}-2-methylamino-propionamide] | < 0.1 | < 0.1 | 0.1 to 1 |
| CN[C@@H](C)C(=O)N[C@H](C(=O)N1CC[C@H]2NC[C@H](c3c[nH]c4cc(F)ccc34)[C@H]21)C(C)C [Example 30, N-{1-[6-(6-Fluoro-1H-indol-3-yl)-hexahydro-pyrrolo[3,2-b]pyrrole-1-carbonyl]-2-methyl-propyl}-2-methylamino-propionamide] | < 0.1 | < 0.1 | < 0.1 |
